Assay results taken from patent US20110217713A1 (On-Q-ity, priority 2010, published 2011).

System: non-small cell lung cancer patient specimens (adenocarcinomas and squamous cell carcinoma)
Assay: International Adjuvant Lung Trial (IALT): cisplatin-based therapy vs observation, DFS/OS against IHC DNA repair biomarker Q-scores (Cox PH models)
Type: in vivo, human
Experimental: An immunohistochemical evaluation of DNA Repair Proteins was conducted on a large international patient specimen collection from the IALT trial (International Adjuvant Lung Trial). This clinical trial originally comprised approximately 1867 non-small cell lung cancer patient specimens (adenocarcinomas and squamous cell carcinoma) and was designed to test clinical parameters for patients receiving either cisplatin-based therapy or those considered observation. One problem with testing of biomarkers in general from clinical trials is that the patient population treatments are generally a mixture of several different treatments and combinations of such and so results may be confounded by interactions of various treatments. However, the IALT trial represents pristine treatment arms of cisplatin and observation and thus is relatively free of confounding affects due to treatment variation.
International Adjuvant Lung Cancer Trial (IALT) NSCLC FFPE patient specimens constructed on TMAs (13 total) were stained by IHC for DNA repair biomarkers: ATM, MSH2, ERCC1, p53, pMK2, PARP1, BRCA1, XPF. An average of 603 patients were analyzed for each biomarker. Tumor biomarker nuclear or cytoplasmic levels were determined using digital image user defined macros. Scores were generated based on weighted intensity and quantity of stained cells. In reference to accompanying diagrams in the Powerpoint files, please note that a wide dynamic range achieved during assay development and optimization in commercially available TMAs is translationally achieved when patients comprising this study population are stained, annotated for tumor region and scored by user-defined macros.
Previous studies have utilized standard pathologist-based scoring, thus we chose to optimize the IHC-based assessment of biomarker levels using digital pathology and weighted scoring. This endeavor is undertaken so that for a given population a continuum of scores (herein referred to as Q-scores) with a broad dynamic range may be generated by user defined macros. Here, scoring of individual tumor cells comprising each patient specimen is generated and then patients assembled into a population continuum of scores against which finer cut-points may tested and established rather than crude binning methods as employed in previous studies.
Q-score=10*(% of 10+cells)+9*(% of 9+cells)+8*(% of 8+cells)+7*(% of 7+cells) . . . 1*(% of 1+cells)
Cox PH models adjusted for relevant clinical and stratification variables were used in the univariate analyses of Disease-Free Survival (DFS) and Overall Survival (OS). Initial analyses were conducted using biomarker Q scores as continuous variables against clinical endpoint metrics.

[1] = ERCC1 model, ADENOCARCINOMA, Without variables
[2] = ERCC1 model, SQUAMOUS CELLS, With adjustment variables
[3] = ERCC1 model, SQUAMOUS CELLS, With selected variables
[4] = ERCC1 model, SQUAMOUS CELLS, Without variables
[5] = Mean Q score PMK2 nuclear (PMK2MN), Adenocarcinoma, with adjustment variables
[6] = Mean Q score PMK2 nuclear (PMK2MN), Adenocarcinoma, with selected variables
[7] = Mean Q score PMK2 nuclear (PMK2MN), Adenocarcinoma, without variables
[8] = Mean Q score PMK2 nuclear (PMK2MN), Squamous Cells, with adjustment variables
[9] = Mean Q score PMK2 nuclear (PMK2MN), Squamous Cells, with selected variables
[10] = Mean Q score PMK2 nuclear (PMK2MN), Squamous Cells, without variables
[11] = Mean Q score of PMK2 cytoplasm divided by nuclear (PMK2MCNp), Adenocarcinoma, with adjustment variables
[12] = Mean Q score of PMK2 cytoplasm divided by nuclear (PMK2MCNp), Adenocarcinoma, with selected variables
[13] = Mean Q score of PMK2 cytoplasm divided by nuclear (PMK2MCNp), Adenocarcinoma, without variables
[14] = Mean Q score sum of PMK2 cytoplasm & nuclear (PMK2MCNs), Adenocarcinoma, with adjustment variables
[15] = Mean Q score sum of PMK2 cytoplasm & nuclear (PMK2MCNs), Adenocarcinoma, with selected variables
[16] = Mean Q score sum of PMK2 cytoplasm & nuclear (PMK2MCNs), Adenocarcinoma, without variables
[17] = Mean Q score sum of PMK2 cytoplasm & nuclear (PMK2MCNs), Squamous Cells, with adjustment variables
[18] = Mean Q score sum of PMK2 cytoplasm & nuclear (PMK2MCNs), Squamous Cells, with selected variables
[19] = Mean Q score sum of PMK2 cytoplasm & nuclear (PMK2MCNs), Squamous Cells, without variables
[20] = Overall Survival, MEAN Q SCORE PMK2 CYTOPLASM, Adenocarcinoma, With adjustment variables
[21] = Overall Survival, MEAN Q SCORE PMK2 CYTOPLASM, Adenocarcinoma, With selected variables
[22] = Overall Survival, MEAN Q SCORE PMK2 CYTOPLASM, Adenocarcinoma, Without variables
[23] = Overall Survival, MEAN Q SCORE PMK2 CYTOPLASM, Squamous Cells, With selected variables
[24] = Overall Survival, MEAN Q SCORE PMK2 CYTOPLASM, Squamous Cells, Without variables
[25] = PARP1 model, SQUAMOUS CELLS, With adjustment variables
[26] = PARP1 model, SQUAMOUS CELLS, With selected variables
[27] = PARP1 model, SQUAMOUS CELLS, Without variables
[28] = XPF model, ADENOCARCINOMA, With adjustment variables
[29] = XPF model, ADENOCARCINOMA, With selected variables
[30] = XPF model, ADENOCARCINOMA, Without variables
[31] = XPF model, SQUAMOUS CELLS, With adjustment variables
[32] = XPF model, SQUAMOUS CELLS, With selected variables
[33] = XPF model, SQUAMOUS CELLS, Without variables

Question: `N.N.[Cl][Pt][Cl]` [cisplatin] was tested. Which “HazardRatio, Treatment” value (ERCC1 model, ADENOCARCINOMA, With selected variables) did it give?
Answer: 0.765

Question: What about the “HazardRatio, ERCC1_Treatment” value [1] of the same molecule?
Answer: 1.024

Question: And the “HazardRatio, Treatment” value [1]?
Answer: 1.040

Question: What about the “HazardRatio, ERCC1_Treatment” value [2] of the same molecule?
Answer: 1.070

Question: And the “HazardRatio, Treatment” value [2]?
Answer: 0.731

Question: What about the “HazardRatio, ERCC1_Treatment” value [3] of the same molecule?
Answer: 1.052

Question: And the “HazardRatio, Treatment” value [3]?
Answer: 0.781

Question: What about the “HazardRatio, ERCC1_Treatment” value [4] of the same molecule?
Answer: 1.054

Question: What about the “HazardRatio, Treatment” value [4] of the same molecule?
Answer: 0.773

Question: And the “HazardRatio, PMK2MN_Treatment interaction (Disease Free Survival)” value [5]?
Answer: 1.077

Question: And the “HazardRatio, Treatment (Disease Free Survival)” value [5]?
Answer: 0.811

Question: And the “HazardRatio, PMK2MN_Treatment interaction (Disease Free Survival)” value [6]?
Answer: 1.084

Question: What about the “HazardRatio, Treatment (Disease Free Survival)” value [6] of the same molecule?
Answer: 0.802

Question: What about the “HazardRatio, PMK2MN_Treatment interaction (Disease Free Survival)” value [7] of the same molecule?
Answer: 0.956

Question: What about the “HazardRatio, Treatment (Disease Free Survival)” value [7] of the same molecule?
Answer: 1.146

Question: What about the “HazardRatio, PMK2MN_Treatment interaction (Disease Free Survival)” value [8] of the same molecule?
Answer: 1.145

Question: And the “HazardRatio, Treatment (Disease Free Survival)” value [8]?
Answer: 0.737

Question: What about the “HazardRatio, PMK2MN_Treatment interaction (Disease Free Survival)” value [9] of the same molecule?
Answer: 1.145

Question: What about the “HazardRatio, Treatment (Disease Free Survival)” value [9] of the same molecule?
Answer: 0.750

Question: What about the “HazardRatio, PMK2MN_Treatment interaction (Disease Free Survival)” value [10] of the same molecule?
Answer: 1.111

Question: What about the “HazardRatio, Treatment (Disease Free Survival)” value [10] of the same molecule?
Answer: 0.780

Question: And the “HazardRatio, PMK2MCNp_Treatment interaction (Disease Free Survival)” value [11]?
Answer: 0.000

Question: What about the “HazardRatio, Treatment (Disease Free Survival)” value [11] of the same molecule?
Answer: 0.954

Question: What about the “HazardRatio, PMK2MCNp_Treatment interaction (Disease Free Survival)” value [12] of the same molecule?
Answer: 0.000

Question: What about the “HazardRatio, Treatment (Disease Free Survival)” value [12] of the same molecule?
Answer: 0.992

Question: And the “HazardRatio, PMK2MCNp_Treatment interaction (Disease Free Survival)” value [13]?
Answer: 0.000

Question: And the “HazardRatio, Treatment (Disease Free Survival)” value [13]?
Answer: 1.177

Question: And the “HazardRatio, Treatment (Disease Free Survival)” value (Mean Q score of PMK2 cytoplasm divided by nuclear (PMK2MCNp), Squamous Cells, with adjustment variables)?
Answer: 0.612

Question: And the “HazardRatio, Treatment (Disease Free Survival)” value (Mean Q score of PMK2 cytoplasm divided by nuclear (PMK2MCNp), Squamous Cells, with selected variables)?
Answer: 0.645

Question: And the “HazardRatio, Treatment (Disease Free Survival)” value (Mean Q score of PMK2 cytoplasm divided by nuclear (PMK2MCNp), Squamous Cells, without variables)?
Answer: 0.726

Question: What about the “HazardRatio, PMK2MCNs_Treatment interaction (Disease Free Survival)” value [14] of the same molecule?
Answer: 1.041

Question: And the “HazardRatio, Treatment (Disease Free Survival)” value [14]?
Answer: 0.832

Question: And the “HazardRatio, PMK2MCNs_Treatment interaction (Disease Free Survival)” value [15]?
Answer: 1.044

Question: What about the “HazardRatio, Treatment (Disease Free Survival)” value [15] of the same molecule?
Answer: 0.828

Question: What about the “HazardRatio, PMK2MCNs_Treatment interaction (Disease Free Survival)” value [16] of the same molecule?
Answer: 0.939

Question: And the “HazardRatio, Treatment (Disease Free Survival)” value [16]?
Answer: 1.203

Question: What about the “HazardRatio, PMK2MCNs_Treatment interaction (Disease Free Survival)” value [17] of the same molecule?
Answer: 1.091

Question: And the “HazardRatio, Treatment (Disease Free Survival)” value [17]?
Answer: 0.751

Question: And the “HazardRatio, PMK2MCNs_Treatment interaction (Disease Free Survival)” value [18]?
Answer: 1.090

Question: And the “HazardRatio, Treatment (Disease Free Survival)” value [18]?
Answer: 0.766

Question: What about the “HazardRatio, PMK2MCNs_Treatment interaction (Disease Free Survival)” value [19] of the same molecule?
Answer: 1.066

Question: And the “HazardRatio, Treatment (Disease Free Survival)” value [19]?
Answer: 0.798

Question: And the “HazardRatio, PMK2MC_Treatrnent” value [20]?
Answer: 1.001

Question: And the “HazardRatio, Treatment” value [20]?
Answer: 0.883

Question: And the “HazardRatio, PMK2MC_Treatment” value [21]?
Answer: 0.972

Question: And the “HazardRatio, Treatment” value [21]?
Answer: 0.891

Question: What about the “HazardRatio, PMK2MC_Treatment” value [22] of the same molecule?
Answer: 0.639

Question: What about the “HazardRatio, Treatment” value [22] of the same molecule?
Answer: 1.264

Question: And the “HazardRatio, PMK2MC_Treatment” value [23]?
Answer: 1.240

Question: What about the “HazardRatio, Treatment” value [23] of the same molecule?
Answer: 0.803

Question: And the “HazardRatio, PMK2MC_Treatment” value [24]?
Answer: 1.147

Question: What about the “HazardRatio, Treatment” value [24] of the same molecule?
Answer: 0.835

Question: And the “HazardRatio, PARP1_Treatment” value [25]?
Answer: 1.082

Question: And the “HazardRatio, Treatment” value [25]?
Answer: 0.621

Question: What about the “HazardRatio, PARP1_Treatment” value [26] of the same molecule?
Answer: 1.062

Question: And the “HazardRatio, Treatment” value [26]?
Answer: 0.687

Question: What about the “HazardRatio, PARP1_Treatment” value [27] of the same molecule?
Answer: 1.107

Question: What about the “HazardRatio, Treatment” value [27] of the same molecule?
Answer: 0.572

Question: What about the “predictive HR, p53” value (SCC, univariate Cox PH, biomarker Q score, DFS primary endpoint, OS secondary, p=0.005, 95% CI 1.035-1.212) of the same molecule?
Answer: 1.120

Question: What about the “predictive HR, ATM” value (SCC, univariate Cox PH, biomarker Q score, DFS primary endpoint, OS secondary, p=0.010, 95% CI 1.046-1.405) of the same molecule?
Answer: 1.212

Question: And the “predictive HR, MSH2” value (SCC, univariate Cox PH, biomarker Q score, DFS primary endpoint, OS secondary, p=0.012, 95% CI 1.044-1.42)?
Answer: 1.218

Question: What about the “HazardRatio, Treatment” value [28] of the same molecule?
Answer: 0.628

Question: What about the “HazardRatio, XPF_Treatment” value [28] of the same molecule?
Answer: 1.179

Question: What about the “HazardRatio, Treatment” value [29] of the same molecule?
Answer: 0.689

Question: What about the “HazardRatio, XPF_Treatment” value [29] of the same molecule?
Answer: 1.166

Question: And the “HazardRatio, Treatment” value [30]?
Answer: 0.900

Question: And the “HazardRatio, XPF_Treatment” value [30]?
Answer: 1.080

Question: And the “HazardRatio, Treatment” value [31]?
Answer: 0.813

Question: And the “HazardRatio, XPF_Treatment” value [31]?
Answer: 1.030

Question: And the “HazardRatio, Treatment” value [32]?
Answer: 0.820

Question: And the “HazardRatio, XPF_Treatment” value [32]?
Answer: 1.035

Question: What about the “HazardRatio, Treatment” value [33] of the same molecule?
Answer: 0.759

Question: And the “HazardRatio, XPF_Treatment” value [33]?
Answer: 1.063
